Literature values as cited in patent US20020082283A1, “Nitrogen-containing compounds and their use as glycine transport inhibitors” (Gliatech, Inc., priority 2000, published 2002).

Test system: NMDA receptor
Details: in vitro at concentrations at which clinical efficacy is seen

increase in NMDA receptor activity: ~40%
SMILES: O=C(CCCN1CCC(O)(c2ccc(Cl)cc2)CC1)c1ccc(F)cc1 [haloperidol]
